The record followed here is patent publication EP1092438B1, “Pharmaceutical compositions containing growth-hormone inhibitors or their biologically active fragments for the treatment of uterine myomas” (De Leo, Vincenzo, priority 1999, dated 2006).

SMILES strings stand for the structures.

This data set is described as follows: Routine blood parameters before and after treatment. It counts as in vivo. The following applies: person. An excerpt: TABLE 1 Example 1 (patient)

For the molecule `CC(C)[C@@H]1NC(=O)[C@H](CCCCN)NC(=O)[C@@H](Cc2c[nH]c3ccccc23)NC(=O)[C@H](Cc2ccc(O)cc2)NC(=O)[C@@H](NC(=O)[C@H](N)Cc2ccc3ccccc3c2)CSSC[C@@H](C(=O)N[C@H](C(N)=O)[C@@H](C)O)NC1=O` [Lanreotide], the routine blood parameters result is on record as “remained unvaried”.
